From paper PMC9822021, “Biological Activity of Amidino-Substituted Imidazo [4,5-b]pyridines” (Molecules, 2022)

Experiments:
[1] = test system: HL-60 acute myeloid leukemia cells; experiment: In vitro antiproliferative activity, MTS proliferation assay; format: cell-based; settings: Homo sapiens, 72 h
Procedure: (§1) Culture media were purchased from Gibco Life Technologies, USA, and supplemented with 10% fetal bovine serum (HyClone, GE Healthcare Life Sciences, Chicago, IL, USA), except for the media for SW620, PC3 and HeLa cells, which were purchased from Sigma.
(§2) Cells were incubated for 72 h with compounds and were then analyzed using the CellTiter 96® AQueous One Solution Cell Proliferation Assay (MTS) reagent (Promega) according to the manufacturer’s instructions. […] Compounds were tested in two independent experiments. SW620, PC3 and HeLa cells were seeded in 96-well microtiter plates at 1 × 10^4 to 3 × 10^4 cells/mL, depending on the doubling times of the specific cell line. Test agents were then added in five 10-fold dilutions (10^−8 to 10^−4 M). Working dilutions were freshly prepared on the day of testing. After 72 h of incubation, the cell growth rate was evaluated using the MTT assay as described previously. […] Each test was performed in quadruplicate in at least two individual experiments.

[2] = test system: DND-41 acute lymphoblastic leukemia cells; experiment: as above; format: cell-based; settings: Homo sapiens, DND41, 72 h
Procedure: as §1, §2

[3] = test system: Capan-1 pancreatic adenocarcinoma cells; experiment: as above; format: cell-based; settings: Homo sapiens, 72 h
Procedure: as §1, §2

[4] = test system: K-562 chronic myeloid leukemia cells; experiment: as above; format: cell-based; settings: Homo sapiens, K562, 72 h
Description: (§3) Human cancer cell lines used in this manuscript, namely Capan-1, HCT-116, NCI-H460, LN-229, HL-60, K-562, Z-138, SW620, PC3 and HeLa, were acquired from the American Type Culture Collection (ATCC, Manassas, VA, USA), while the DND-41 cell line was purchased from the Deutsche Sammlung von Mikroorganismen und Zellkulturen (DSMZ Leibniz-Institut, Germany). Culture media were purchased from Gibco Life Technologies, USA, and supplemented with 10% fetal bovine serum (HyClone, GE Healthcare Life Sciences, Chicago, IL, USA), except for the media for SW620, PC3 and HeLa cells, which were purchased from Sigma.
(§4) Adherent cell lines LN-229, HCT-116, NCI-H460 and Capan-1 cells were seeded at a density between 500 and 1500 cells per well in 384-well tissue culture plates (Greiner). […]. Cells were incubated for 72 h with compounds and were then analyzed using the CellTiter 96® AQueous One Solution Cell Proliferation Assay (MTS) reagent (Promega) according to the manufacturer’s instructions. Absorbance of the samples was measured at 490 nm using a SpectraMax Plus 384 (Molecular Devices), and OD values were used to calculate the 50% inhibitory concentration (IC50). Compounds were tested in two independent experiments. SW620, PC3 and HeLa cells were seeded in 96-well microtiter plates at 1 × 10^4 to 3 × 10^4 cells/mL, depending on the doubling times of the specific cell line. Test agents were then added in five 10-fold dilutions (10^−8 to 10^−4 M). Working dilutions were freshly prepared on the day of testing. After 72 h of incubation, the cell growth rate was evaluated using the MTT assay as described previously. Absorbance of the samples was measured at 570 nm, and OD values were used to calculate the 50% inhibitory concentration (IC50). Each test was performed in quadruplicate in at least two individual experiments.

[5] = test system: LN-229 glioblastoma cells; experiment: as above; format: cell-based; settings: Homo sapiens, 72 h
Description: as §3, §4

[6] = test system: NCI-H460 lung carcinoma cells; experiment: as above; format: cell-based; settings: Homo sapiens, 72 h
Description: as §3, §4

[7] = test system: HCT-116 colorectal carcinoma cells; experiment: as above; format: cell-based; settings: Homo sapiens, 72 h
Description: as §3, §4

in vitro [8] = settings: dog
E. coli Efflux Del = experiment: microbe, parasite or virus in culture; format: cell-based; settings: Escherichia coli, read-out: MIC E. coli Efflux Del
Procedure: (§5) Synthesized compounds were prepared as 10 mM DMSO solutions and tested in a final concentration range of 100–0.2 µM [34].
(§6) Broth microdilution testing was performed according to CLSI (Clinical Laboratory Standards Institute) guidelines. MIC (minimal inhibitory concentration) values were defined as the last tested concentration of the compound at which there was no visible growth of bacteria. Inoculums for each microorganism were prepared using the direct colony suspension method, where broth solutions that achieved turbidity equivalent to 0.5 McFarland standard were additionally diluted 100× with Ca-adjusted MH media (Becton Dickinson).

[9] = test system: PC3 prostate carcinoma cells; experiment: In vitro antiproliferative activity, MTT assay; format: cell-based; settings: Homo sapiens, 72 h
Description: as §3, §4

[10] = test system: SW620 colon carcinoma cells; experiment: In vitro antiproliferative activity, MTT assay; format: cell-based; settings: Homo sapiens, SW-620, 72 h
Description: as §3, §4

[11] = test system: HeLa cervical carcinoma cells; experiment: In vitro antiproliferative activity, MTT assay; format: cell-based; settings: Homo sapiens, 72 h
Description: as §3, §4

[12] = test system: panel of cancer cell lines (LN-229, Capan-1, HCT-116, NCI-H460, DND-41, HL-60, K-562, Z-138); experiment: In vitro antiproliferative activity, whole panel of Table 1 (MTS); format: cell-based; settings: Homo sapiens, range over eight cell lines, 72 h, read-out: IC50 values ranging over the panel of cancer cell lines of Table 1
Description: as §3
(§7) Adherent cell lines LN-229, HCT-116, NCI-H460 and Capan-1 cells were seeded at a density between 500 and 1500 cells per well in 384-well tissue culture plates (Greiner). […]. Cells were incubated for 72 h with compounds and were then analyzed using the CellTiter 96® AQueous One Solution Cell Proliferation Assay (MTS) reagent (Promega) according to the manufacturer’s instructions. Absorbance of the samples was measured at 490 nm using a SpectraMax Plus 384 (Molecular Devices), and OD values were used to calculate the 50% inhibitory concentration (IC50). Compounds were tested in two independent experiments. […] After 72 h of incubation, the cell growth rate was evaluated using the MTT assay as described previously. […]

S. Pneumoniae ATCC 49619 = experiment: Antibacterial activity in vitro, broth microdilution; format: cell-based; settings: Streptococcus pneumoniae, ATCC49619; broth microdilution (CLSI), 16–24 h at 37 °C
Procedure: as §5, §6

S. aureus ATCC 29213 = experiment: as above; format: cell-based; settings: Staphylococcus aureus, ATCC29213; broth microdilution (CLSI), 16–24 h at 37 °C
Procedure: as §5, §6

E. coli ATCC 25922 = experiment: as above; format: cell-based; settings: Escherichia coli, ATCC25922; broth microdilution (CLSI), 16–24 h at 37 °C
Procedure: as §5, §6

[13] = test system: Z-138 non-Hodgkin lymphoma cells; experiment: In vitro antiproliferative activity, MTS proliferation assay; format: cell-based, human
Description: as §3, §4

in vitro [14] = settings: human
in vitro [15] = settings: human; remark: listed apart in the source
in vitro [16] = experiment: in vitro
[17] = test system: Influenza H3N2 (A/HK/7/87); experiment: Antiviral CPE reduction assay; format: cell-based; settings: Influenza A virus, MDCK cells
[18] = Cytotoxicity in virus host cell line, MTS assay; settings: dog
[19] = test system: Influenza H1N1 (A/Ned/378/05); experiment: Antiviral CPE reduction assay; format: cell-based; settings: Influenza A virus, MDCK cells
[20] = test system: Influenza B (B/Ned/537/05); experiment: Antiviral CPE reduction assay; format: cell-based; settings: Influenza B virus, MDCK cells
HCoV NL63 = experiment: Antiviral CPE reduction assay; format: cell-based; settings: Human coronavirus NL63, Huh-7, Huh7 cells
Sindbis = experiment: Antiviral CPE reduction assay; format: cell-based; settings: Sindbis virus, Huh-7, Huh7 cells
HCoV OC43 = experiment: Antiviral CPE reduction assay; format: cell-based, human coronavirus OC43; settings: Betacoronavirus 1, OC43, HEL 299 cells
HCoV 229E = experiment: Antiviral CPE reduction assay; format: cell-based; settings: Human coronavirus 229E, HEL 299 cells
[21] = test system: SW620, HeLa and PC3 cancer cell lines; experiment: In vitro antiproliferative activity, all three selected cell lines (MTT); format: cell-based; settings: Homo sapiens, range over three cell lines, 72 h
Description: as §3, §7

HSV-1 KOS = experiment: Antiviral CPE reduction assay; format: cell-based, herpes simplex virus-1; settings: Human alphaherpesvirus 1
RSV A Long = experiment: Antiviral CPE reduction assay; format: cell-based, respiratory syncytial virus A; settings: human respiratory syncytial virus; CPE reduction, HEL 299 cells
Zika mr766 = experiment: Antiviral CPE reduction assay; format: cell-based; settings: Zika virus, Huh-7, Huh7 cells
YFV 17D = experiment: microbe, parasite or virus in culture; format: cell-based; settings: Yellow fever virus, Huh-7, read-out: EC50 YFV 17D Huh7

**Q.** Which results are given for `Brc1cnc2nc(-c3ccc(C4=NCCN4)cc3)[nH]c2c1.Cl` [Compound 14, 6-Bromo-2-(4-(4,5-dihydro-1H-imidazol-2-yl)phenyl)-1H-imidazo[4,5-b]pyridine Hydrochloride]?
**A.** IC50 [1]: 9.5 ± 1.3 µM; IC50 [2]: 10.8 ± 0.4 µM; IC50 [3]: 9.4 ± 0.4 µM; IC50 [4]: 49.7 ± 3.1 µM; IC50 [5]: 8 ± 1.8 µM; IC50 [6]: 13 ± 7.6 µM; IC50 [7]: 13.6 ± 2.8 µM; melting point: > 300 °C; CC50 (in vitro [8]): 33.9 ± 0.1 µM; MIC (E. coli Efflux Del): 32 µM; IC50 [9]: 1.5 ± 0.5 µM; IC50 [10]: 0.7 ± 0.3 µM; IC50 [11]: 4.3 ± 2.6 µM; IC50 [12]: 8 to 49.7 µM; MIC (S. Pneumoniae ATCC 49619): > 64 µM; MIC (S. aureus ATCC 29213): > 64 µM; MIC (E. coli ATCC 25922): > 64 µM; IC50 ([13]; 72 h): 8.5 ± 2 µM; IC50 ([13]; Homo sapiens, Z-138, 72 h): 8.4 µM

**Q.** Which CC50 (in vitro [14]) does the source give for `CC(C)NC(=N)c1ccc(-c2nc3ncccc3[nH]2)cc1.Cl` [Compound 13, 4-(1H-Imidazo[4,5-b]pyridin-2-yl)-N-isopropylbenzimidamide Hydrochloride] here?
**A.** The CC50 was 81.1 ± 26.8 µM.

**Q.** And the IC50 [1]?
**A.** The IC50 was greater than 100 µM.

**Q.** And the IC50 [2]?
**A.** The IC50 was greater than 100 µM.

**Q.** And the IC50 [3]?
**A.** Its IC50 is greater than 100 µM.

**Q.** And the IC50 [4]?
**A.** Its IC50 is greater than 100 µM.

**Q.** What about the IC50 [5] of the same compound?
**A.** Its IC50 is greater than 100 µM.

**Q.** And the IC50 [6]?
**A.** Its IC50 is greater than 100 µM.

**Q.** What about the IC50 [7] of the same compound?
**A.** Its IC50 is greater than 100 µM.

**Q.** What about the melting point of the same compound?
**A.** Its melting point is 293 to 295 °C.

**Q.** What about the CC50 (in vitro [15]) of the same compound?
**A.** Its CC50 is greater than 100 µM.

**Q.** And the CC50 (in vitro [8])?
**A.** Its CC50 is greater than 100 µM.

**Q.** What about the CC50 (in vitro [16]) of the same compound?
**A.** The CC50 was greater than 30 µM.

**Q.** And the MIC (E. coli Efflux Del)?
**A.** The MIC was greater than 64 µM.

**Q.** And the IC50 [9]?
**A.** The IC50 was greater than 100 µM.

**Q.** And the IC50 [10]?
**A.** Its IC50 is greater than 100 µM.

**Q.** And the IC50 [11]?
**A.** Its IC50 is greater than 100 µM.

**Q.** And the MIC (S. Pneumoniae ATCC 49619)?
**A.** Its MIC is greater than 64 µM.

**Q.** And the MIC (S. aureus ATCC 29213)?
**A.** Its MIC is greater than 64 µM.

**Q.** And the MIC (E. coli ATCC 25922)?
**A.** The MIC was greater than 64 µM.

**Q.** What about the IC50 ([13]; Homo sapiens, Z-138, 72 h) of the same compound?
**A.** The IC50 was greater than 100 µM.

**Q.** What does the source list for `CC(N)C12CC3CC(CC(C3)C1)C2` (centres unmarked) [Rimantadine, rimantadine, reference compound]?
**A.** EC50 [17]: 0.05 ± 0.05 µM; CC50 [18]: > 100 µM; EC50 [19]: 4.4 ± 4.2 µM; EC50 [20]: > 100 µM

**Q.** Which results are given for `N#Cc1ccc(-c2nc3ncc(Br)cc3[nH]2)cc1` [Compound 8, 4-(6-Bromo-1H-imidazo[4,5-b]pyridin-2-yl)benzonitrile]?
**A.** CC50 (in vitro [14]): > 100 µM; EC50 (HCoV NL63): > 100 µM; IC50 [1]: > 100 µM; IC50 [2]: > 100 µM; IC50 [3]: > 100 µM; EC50 (Sindbis): > 100 µM; IC50 [4]: > 100 µM; IC50 [5]: > 100 µM; IC50 [6]: > 100 µM; IC50 [7]: > 100 µM; melting point: > 300 °C; EC50 [17]: 35.9 ± 12.4 µM; CC50 (in vitro [15]): > 100 µM; CC50 (in vitro [8]): > 100 µM; EC50 (HCoV OC43): > 100 µM; MIC (E. coli Efflux Del): > 64 µM; EC50 [19]: 72.4 ± 8 µM; EC50 (HCoV 229E): > 100 µM; IC50 [21]: 1.8 to 3.2 µM; EC50 (HSV-1 KOS): > 100 µM; IC50 [9]: 3.2 ± 0.7 µM; IC50 [10]: 2 ± 0.2 µM; IC50 [11]: 1.8 ± 0.02 µM; EC50 (RSV A Long): > 100 µM; EC50 (Zika mr766): > 100 µM; EC50 (YFV 17D): > 100 µM; MIC (S. Pneumoniae ATCC 49619): > 64 µM; MIC (S. aureus ATCC 29213): > 64 µM; MIC (E. coli ATCC 25922): > 64 µM; IC50 ([13]; Homo sapiens, Z-138, 72 h): > 100 µM; EC50 [20]: 56.7 ± 10.2 µM
